Source: patent publication US9289496B2, “Lipid dipeptide and gel” (Nissan Chemical Industries, Ltd., priority 2008, dated 2016)
Residues, ends and D or L forms follow the SMILES beside them.

Columns and labels:
Type in all cases: physicochemical
[1] = Evaluation of gelation of free N-palmitoyl-Gly-His in water and at various pHs; parameters: key: a sample that formed a gel is shown as “O”; a sample that formed a sol is shown as “X”; a sample without evaluation is shown as “-”
Experimental: Free N-palmitoyl-Gly-His prepared in Example 4 was placed into a screw tube (Maruemu No. 1, manufactured by Maruemu Corp.). Each of the various solutions shown in Table 4 was added into the screw tube so as to have a free N-palmitoyl-Gly-His (also called Pal-GH (free)) concentration of 0.1%, 0.2%, 0.5%, 1%, or 2% (w/v). The mixture was heated at 100° C. with a constant temperature heat block (manufactured by Nippon Genetics Co., Ltd.), and then allowed to stand at room temperature.
In Table, a sample that formed a gel is shown as “O”, a sample that formed a sol is shown as “X”, and a sample without evaluation is shown as “-”.

[2] = Evaluation of gelation of free N-palmitoyl-Gly-His in glycerin solution
Experimental: Free N-palmitoyl-Gly-His prepared in Example 4 was placed into a screw tube (Maruemu No. 1, manufactured by Maruemu Corp.). Each of the glycerin solutions having various concentrations shown in Table 5 was added into the screw tube so as to have a free N-palmitoyl-Gly-His concentration of 0.2%, 0.25%, 0.5%, or 1% (w/v). The mixture was heated at 100° C. with a constant temperature heat block (manufactured by Nippon Genetics Co., Ltd.), and then allowed to stand at room temperature.
(§1) In Table, a sample that formed a gel is shown as “O”, a sample that partially formed a gel is shown as “A”, and a sample without evaluation is shown as “-”.

[3] = Evaluation of gelation of free N-palmitoyl-Gly-His in solution containing inorganic salt, amino acid or organic substance
Experimental: Free N-palmitoyl-Gly-His prepared in Example 4 was placed into a screw tube (Maruemu No. 1, manufactured by Maruemu Corp.). An aqueous solution dissolving each additive described in Table 7 was added into the screw tube so as to have a free N-palmitoyl-Gly-His concentration of 0.5% or 1% (w/v). The mixture was heated at 100° C. with a constant temperature heat block (manufactured by Nippon Genetics Co., Ltd.), and then allowed to stand at room temperature.
as §1

[4] = Gelation of free N-palmitoyl-Gly-His in 65% (w/w) propylene glycol aqueous solution containing lactic acid and potassium lactate; conditions: 65% (w/w) propylene glycol aqueous solution with 5% (w/w) potassium lactate:lactic acid (95:5)
Experimental: Free N-palmitoyl-Gly-His (25 mg) obtained in Example 4 was placed in a screw tube (Maruemu Corp., No. 7). Sixty-five percent (w/w) propylene glycol aqueous solution was added so as to have a concentration of 0.25% (w/v), and a mixture of potassium lactate:lactic acid (95:5) was further added so as to have a concentration of 5% (w/w) with respect to the whole solution. The mixture was heated with a dry bath incubator (manufactured by First Gene) at 75° C. for 10 minutes. The obtained solution was transferred into a spray vial (Maruemu Corp., No. 3L), and allowed to cool to room temperature.
Free N-palmitoyl-Gly-His (80 mg) obtained in Example 4 was placed into a screw tube (Maruemu Corp., No. 7). Sixty-five percent (w/w) propylene glycol aqueous solution was added so as to have a concentration of 0.2% (w/v), and a mixture of potassium lactate:lactic acid (95:5) was further added so as to have a concentration of 5% (w/w) with respect to the whole solution. The mixture was heated with a dry bath incubator (manufactured by First Gene) at 93° C. for 5 minutes. The obtained solution was transferred into a spray vial (Maruemu Corp., No. 3L), and allowed to cool to room temperature.

[5] = Gelation test when adding methylparaben; conditions: aqueous solution of 0.2 wt % methylparaben; 0.25, 0.5 or 1.0 wt % tested
Experimental: An aqueous solution of 0.2 wt % methylparaben was prepared, and into the solution, free N-palmitoyl-Gly-His prepared in Example 4 was added so as to have a concentration of 0.25, 0.5, or 1.0 wt % to prepare a suspended mixture solution. Each mixture solution was heated at 95 to 99° C. until dissolved (for 6 to 25 minutes), and then allowed to cool to room temperature.

[6] = Usable mediums: solubility and gel formation, conventional art vs palmitoyl-Gly-His; conditions: wide variety of mediums including 50 mM citrate buffer pH 5, 50 mM acetate buffer pH 5, ethanol/water with 80% or more ethanol

Q: What does the source list for `CCCCCCCCCCCCCCCC(=O)NCC(=O)N[C@@H](Cc1c[nH]cn1)C(=O)O` [Example 4, N-Palmitoyl-Gly-His] (HELM PEPTIDE1{[CCCCCCCCCCCCCCCC(=O)[*:2]].G.H}$$$$V2.0)?
A: Gelation ([1]; 0.1% (w/v), phosphate buffer solution pH 3): ◯; Gelation ([1]; 0.1% (w/v), phosphoric acid aqueous solution pH 2): ◯; Gelation ([1]; 0.1% (w/v), water): X; Gelation ([1]; 0.2% (w/v), phosphate buffer solution pH 3): ◯; Gelation ([1]; 0.2% (w/v), phosphate buffer solution pH 5): ◯; Gelation ([1]; 0.2% (w/v), phosphate buffer solution pH 6): ◯; Gelation ([1]; 0.2% (w/v), phosphoric acid aqueous solution pH 2): ◯; Gelation ([1]; 0.2% (w/v), water): X; Gelation ([1]; 0.5% (w/v), phosphate buffer solution pH 3): ◯; Gelation ([1]; 0.5% (w/v), phosphate buffer solution pH 5): ◯; Gelation ([1]; 0.5% (w/v), phosphate buffer solution pH 6): ◯; Gelation ([1]; 0.5% (w/v), phosphate buffer solution pH 7.5): ◯; Gelation ([1]; 0.5% (w/v), phosphate buffer solution pH 9): X; Gelation ([1]; 0.5% (w/v), phosphate buffer solution pH 10): X; Gelation ([1]; 0.5% (w/v), phosphoric acid aqueous solution pH 2): ◯; Gelation ([1]; 0.5% (w/v), water): X; Gelation ([1]; 1.0% (w/v), phosphate buffer solution pH 5): ◯; Gelation ([1]; 1.0% (w/v), phosphate buffer solution pH 6): ◯; Gelation ([1]; 1.0% (w/v), phosphate buffer solution pH 7.5): ◯; Gelation ([1]; 1.0% (w/v), phosphate buffer solution pH 9): ◯; Gelation ([1]; 1.0% (w/v), phosphate buffer solution pH 10): ◯; Gelation ([1]; 1.0% (w/v), water): ◯; Gelation ([1]; 2.0% (w/v), phosphate buffer solution pH 9): ◯; Gelation ([1]; 2.0% (w/v), phosphate buffer solution pH 10): ◯; Gelation ([1]; 2.0% (w/v), water): ◯; Gelation ([2]; 0.2% (w/v), mass fraction glycerin/water + glycerin 0.1): Δ; Gelation ([2]; 0.2% (w/v), mass fraction glycerin/water + glycerin 0.3): Δ; Gelation ([2]; 0.2% (w/v), mass fraction glycerin/water + glycerin 0.5): ◯; Gelation ([2]; 0.2% (w/v), mass fraction glycerin/water + glycerin 0.6): ◯; Gelation ([2]; 0.2% (w/v), mass fraction glycerin/water + glycerin 0.7): ◯; Gelation ([2]; 0.25% (w/v), mass fraction glycerin/water + glycerin 0.1): ◯; Gelation ([2]; 0.25% (w/v), mass fraction glycerin/water + glycerin 0.3): ◯; Gelation ([2]; 0.25% (w/v), mass fraction glycerin/water + glycerin 0.4): ◯; Gelation ([2]; 0.25% (w/v), mass fraction glycerin/water + glycerin 0.5): ◯; Gelation ([2]; 0.25% (w/v), mass fraction glycerin/water + glycerin 0.6): ◯; Gelation ([2]; 0.25% (w/v), mass fraction glycerin/water + glycerin 0.7): ◯; Gelation ([2]; 0.5% (w/v), mass fraction glycerin/water + glycerin 0.1): ◯; Gelation ([2]; 0.5% (w/v), mass fraction glycerin/water + glycerin 0.3): ◯; Gelation ([2]; 0.5% (w/v), mass fraction glycerin/water + glycerin 0.4): ◯; Gelation ([2]; 0.5% (w/v), mass fraction glycerin/water + glycerin 0.5): ◯; Gelation ([2]; 0.5% (w/v), mass fraction glycerin/water + glycerin 0.6): ◯; Gelation ([2]; 0.5% (w/v), mass fraction glycerin/water + glycerin 0.7): ◯; Gelation ([2]; 1.0% (w/v), mass fraction glycerin/water + glycerin 0.1): ◯; Gelation ([2]; 1.0% (w/v), mass fraction glycerin/water + glycerin 0.3): ◯; Gelation ([2]; 1.0% (w/v), mass fraction glycerin/water + glycerin 0.4): ◯; Gelation ([2]; 1.0% (w/v), mass fraction glycerin/water + glycerin 0.5): ◯; Gelation ([2]; 1.0% (w/v), mass fraction glycerin/water + glycerin 0.6): ◯; Gelation ([2]; 1.0% (w/v), mass fraction glycerin/water + glycerin 0.7): ◯; Gelation ([3]; 0.5% (w/v), aqueous solution of Alanine 0.1 wt %): ◯; Gelation ([3]; 0.5% (w/v), aqueous solution of Aspartic acid 0.27 wt %): ◯; Gelation ([3]; 0.5% (w/v), aqueous solution of Glycine 0.1 wt %): ◯; Gelation ([3]; 0.5% (w/v), aqueous solution of KCl 0.1 wt %): Δ; Gelation ([3]; 0.5% (w/v), aqueous solution of KCl 0.5 wt %): Δ; Gelation ([3]; 0.5% (w/v), aqueous solution of Lysine hydrochloride 0.1 wt %): Δ; Gelation ([3]; 0.5% (w/v), aqueous solution of NaCl 0.1 wt %): Δ; Gelation ([3]; 0.5% (w/v), aqueous solution of NaCl 0.5 wt %): ◯; Gelation ([3]; 0.5% (w/v), aqueous solution of Phenoxyethanol 0.25 wt %): ◯; Gelation ([3]; 1.0% (w/v), aqueous solution of KCl 0.1 wt %): ◯; Gelation ([3]; 1.0% (w/v), aqueous solution of KCl 0.5 wt %): ◯; Gelation ([3]; 1.0% (w/v), aqueous solution of NaCl 0.1 wt %): ◯; Gelation ([3]; 1.0% (w/v), aqueous solution of NaCl 0.5 wt %): ◯; Gelation ([3]; 1.0% (w/v), aqueous solution of Phenoxyethanol 0.25 wt %): ◯; Gelation ([4]; 0.2% (w/v), heated 93° C., 5 minutes): gelation; Gelation ([4]; 0.25% (w/v), heated 75° C., 10 minutes): gelation; Concentration at which a transparent gel was obtained [5]: ≥ 0.5 wt %; Gel formation [6]: can form a gel
